Assay results as given in the supplement of paper PMC8024199.
± gives the standard deviation of the averaged measurements.

Assays:
Assay in all cases: drug sensitivity score (DSS) (DSS score); higher = more sensitive (stronger growth inhibition); extreme values may be limits of the assay
[1] = tested on: Ba/F3 P210-BCR-ABL1 RUNX1-/- (mouse)
Method in brief: (§1)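 Mouse Ba/F3 cells carrying P210-BCR-ABL1, CRISPR/Cas9-edited at runx1 exon 4 or edited-control clones, were screened against a 528-compound library on pre-printed 384-well plates. Each compound ran at five concentrations spanning a 10,000-fold range, with 10,000 cells per well in RPMI with 10% FBS for 72 h at 37 °C and 5% CO2. CellTiter-Glo luminescence was scaled between vehicle and positive-control wells. A drug sensitivity score summarised each dose-response, averaged over two replicates.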

[2] = tested on: Ba/F3 P210-BCR-ABL1 RUNX1wt/wt control (mouse)
Method in brief: as §1

[3] = tested on: Ba/F3 P210-BCR-ABL1 RUNX1-/mut (mouse)
Method in brief: as §1

Structure (SMILES) | drug sensitivity score [1] | drug sensitivity score [2] | drug sensitivity score [3]
C[C@@H]1CN(CC(=O)Nc2ccc3c(c2)Cc2cccc(-c4cc(=O)cc(N5CCOCC5)o4)c2S3)C[C@H](C)O1 | 6.15 ± 1.8 | 3.05 ± 0.49 | 5.3 ± 1.3
CC[C@@H](C(=O)[C@@H](C)[C@@H](O)[C@H](C)[C@@H]1O[C@@H]([C@@H](CC)C(=O)O)CC[C@@H]1C)[C@H]1O[C@]2(C=C[C@@H](O)[C@]3(CC[C@@](C)([C@H]4CC[C@](O)(CC)[C@H](C)O4)O3)O2)[C@H](C)C[C@@H]1C [Salinomycin] | 19.6 ± 7.6 | 17 ± 8.3 | 17.6 ± 10
O=C(Nc1cccc(Nc2ncc(Br)c(NCCc3cnc[nH]3)n2)c1)N1CCCC1 [BX-912] | 8.9 ± 0.42 | 1.85 ± 0.071 | 7.25 ± 1.1
CNC(=O)[C@@H](NC(=O)[C@H](CC(C)C)[C@H](O)C(=O)NO)C(C)(C)C [Marimastat] | 0 | 0 | 0.35 ± 0.49
COc1cc(C)[nH]c(=O)c1CNC(=O)c1c(C)n([C@H](C)C2CCOCC2)c2ccccc12 [CPI-360] | 0 | 0 | 0
O=c1sn(-c2cccc3ccccc23)c(=O)n1Cc1ccccc1 [Tideglusib] | 0 | 0 | 0
NS(=O)(=O)OC[C@@H]1C[C@@H](n2ccc3c(N[C@H]4CCc5ccccc54)ncnc32)C[C@@H]1O [Pevonedistat] | 16.1 ± 2.4 | 7.65 ± 0.21 | 15.4 ± 2
Cc1ccc(C(=O)Nc2ccc(CN3CCN(C)CC3)c(C(F)(F)F)c2)cc1C#Cc1cnc2cccnn12 [Ponatinib] | 36.2 ± 2.4 | 30.2 ± 0.57 | 31.6 ± 0.28
CC(O)c1cc(C(=O)N[C@@H](C)Cn2ccc(-c3ccc(C#N)c(Cl)c3)n2)n[nH]1 (some centres undefined) [ODM-201] | 2.55 ± 0.071 | 0 | 2.05 ± 1.9
CC(=O)c1c(C)c2cnc(Nc3ccc(N4CCNCC4)cn3)nc2n(C2CCCC2)c1=O [Palbociclib] | 11.4 ± 1.3 | 2.25 ± 0.21 | 8.85 ± 1.1
C=C1C[C@@H]2CC[C@@]34C[C@H]5O[C@H]6[C@@H](O3)[C@H]3O[C@H](CC[C@@H]3O[C@H]6[C@H]5O4)CC(=O)C[C@@H]3[C@@H](OC)[C@@H](C[C@H](O)CN)O[C@H]3C[C@H]3O[C@@H](CC[C@@H]1O2)C[C@@H](C)C3=C [Eribulin] | 25.9 ± 1.2 | 17.4 ± 0.14 | 24.6 ± 0.85
Cc1[nH]nc(C(F)(F)F)c1Cc1sc2c(c1C(=O)N1C[C@](C)(O)CO1)c(=O)n(C)c(=O)n2C(C)C [AZD3965] | 9.05 ± 3.5 | 0 | 6.3 ± 0.99
CC(C)(C)C[C@@H]1N[C@@H](C(=O)N[C@H]2CC[C@H](O)CC2)[C@H](c2cccc(Cl)c2F)[C@]12C(=O)Nc1cc(Cl)ccc12 | 6.65 ± 1.3 | 0.75 ± 0.35 | 6.95 ± 1.9
C[C@@H]1CN(C(=O)c2ccc(NC(=O)c3cc(O[C@H](C)c4c(Cl)ccc(F)c4Cl)c(N)nn3)cc2)C[C@H](C)N1 [Ensartinib] | 2.15 ± 0.92 | 0 | 0.2 ± 0.28
C[C@@H](Nc1cc(F)cc(F)c1)c1cc(C(=O)N(C)C)cc2c(=O)cc(N3CCOCC3)oc12 [AZD-8186] | 0 | 0 | 0.5 ± 0.71
Cc1sc2c(c1C)C(c1ccc(Cl)cc1)=N[C@@H](CC(=O)NCCCCNC(=O)COc1cccc3c1C(=O)N(C1CCC(=O)NC1=O)C3=O)c1nnc(C)n1-2 (some centres undefined) [dBET1] | 18.8 ± 2.1 | 11.3 ± 1.5 | 19.1 ± 5.4
CCCOc1ccn2c(C(C)=O)cc(-c3ccccc3S(C)(=O)=O)c2c1 [GSK2801] | 0.1 ± 0.14 | 0 | 2.3 ± 3.2

Structure (SMILES) | drug sensitivity score [1] | drug sensitivity score [2] | drug sensitivity score [3]
CC(=O)O[C@]1(C(C)=O)CC[C@H]2[C@@H]3C=C(C)C4=CC(=O)CC[C@]4(C)[C@H]3CC[C@@]21C [Megestrol acetate] | 0.1 ± 0.14 | 0 | 0.15 ± 0.21
CN(C)CCCOc1ccc(-c2ccc3ncc4c(c3c2)n(C2CCOCC2)c(=O)n4C)cn1 [AZD0156] | 6.8 ± 1.7 | 0 | 7.6 ± 0.14
CC1(C)C(C(=O)Nc2ccc(S(=O)(=O)c3ccc(NC(=O)C4C(C)(C)C4(C)C)cc3)cc2)C1(C)C [BRD7116] | 3.75 ± 2.6 | 0 | 0.05 ± 0.071
Cn1nccc1Nc1nccc(-c2ccn([C@H](CO)c3ccc(Cl)c(F)c3)c(=O)c2)n1 [Ravoxertinib] | 2.75 ± 2.6 | 0.05 ± 0.071 | 1.3 ± 1.8
CN1CCN(C2CCN(C(=O)Nc3cc(Oc4ccc(NC(=O)C5(C(=O)Nc6ccc(F)cc6)CC5)c(F)c4)ccn3)CC2)CC1 [Golvatinib] | 3.95 ± 2 | 0 | 1.8 ± 2
Cc1cc2c(F)c(Oc3ncnn4cc(OC[C@@H](C)O)c(C)c34)ccc2[nH]1 [Brivanib] | 0 | 0 | 0
C=CC(=O)Nc1cccc(Nc2nc(Nc3ccc(OCCOC)cc3)ncc2F)c1 [Spebrutinib] | 0 | 0 | 0
O=C(Nc1nc2cccc(-c3ccc(CN4CCS(=O)(=O)CC4)cc3)n2n1)C1CC1 [Filgotinib] | 1.5 ± 1.7 | 0 | 1.8 ± 2.5
CCN1CCN(c2ccc(Nc3cc(N(C)C(=O)Nc4c(Cl)c(OC)cc(OC)c4Cl)ncn3)cc2)CC1 [Infigratinib] | 0 | 0 | 0
CC[C@@](C)(Nc1ccnc(-c2c[nH]c3ncccc23)n1)C(=O)NCC(F)(F)F [Decernotinib] | 0.5 ± 0.28 | 0.55 ± 0.21 | 0
CC[C@]12C=CCN3CC[C@@]4(c5cc([C@@]6(C(=O)OC)C[C@@H]7C[C@@H](C(C)(F)F)CN(Cc8c6[nH]c6ccccc86)C7)c(OC)cc5N(C)[C@H]4[C@@](O)(C(=O)OC)[C@@H]1OC(C)=O)[C@@H]32 [Vinflunine] | 4.4 ± 0.42 | 3.55 ± 0.21 | 3.95 ± 0.49
Cc1c(F)cc(C(=O)NC2CC2)cc1-c1ccc(C(=O)NCC(C)(C)C)cn1 [Losmapimod] | 2.3 ± 2.4 | 0.15 ± 0.21 | 1.8 ± 2.5
Cc1c(Cn2c(C)nc3c(C(=O)O)cc(N4CCOCC4)cc32)cccc1C(F)(F)F | 0 | 0 | 0
CC(=O)N(O)CCCCCNC(=O)CCC(=O)N(O)CCCCCNC(=O)CCC(=O)N(O)CCCCCN [Deferoxamine] | 6.9 ± 0.71 | 0.9 ± 0.99 | 6.6 ± 1.4
O=C(O)C(=O)O.[NH-][C@@H]1CCCC[C@H]1[NH-].[Pt+2] [Oxaliplatin] | 29 ± 0.14 | 25.85 ± 0.21 | 28.6 ± 0.71
COc1cc(OC)c(/C=C/S(=O)(=O)Cc2ccc(OC)c(NCC(=O)O)c2)c(OC)c1 [Rigosertib] | 26.8 ± 1.1 | 15.6 ± 1.4 | 27.05 ± 0.071
